Literature values, collected in patent US11389412B2, “Curcuminoid chlorophyllin (CHL) compositions and methods of preparation and use” (InovoBiologic Inc., priority 2017, dated 2022).

Conditions: composition of curcuminoid mixture and essential oil arturmerone, U.S. Pat. No. 7,883,728

SMILES: COc1cc(C=CC(=O)CC(=O)C=Cc2ccc(O)c(OC)c2)ccc1O [curcumin, 1,7bis (4-hydroxy-3-methoxy phenyl)-1,6 heptadiene-3,5-dione]
- bioavailability of curcumin in human, maximum: about 93 ng/g
